The results in this text go back to BindingDB's records for doi:10.1016/j.ejmech.2016.05.062 (University of Siena, 2016).

One test in a line: Activity at Smo in mouse C3H10T1/2 cells assessed as induction of cell differentiation into osteoblast incubated for 6 days by alkaline phosphatase assay.
The EC50 is the concentration that produces a half-maximal response. On to `CCCCCCn1c(=O)c(C(=O)Nc2ccc(C(=O)OCCCC)cc2)c(O)c2ccccc21`, for which the EC50 was 1500 nM. Regarding `CCCCCn1c(=O)c(C(=O)Nc2ccc(C(=O)OCCCC)cc2)c(O)c2ccccc21`, the EC50 was 600 nM. As for `CCCCCn1c(=O)c(C(=O)Nc2ccc(C(=O)OCC)cc2)c(O)c2ccccc21`, the EC50 came to 900 nM. On the same count and under the same terms, as for `CCCCCCn1c(=O)c(C(=O)Nc2ccc(C(=O)OCCC)cc2)c(O)c2ccccc21`, the figure is 1200 nM.

`CCCOC(=O)c1ccc(NC(=O)c2c(O)c3cc(C)ccc3n(CCC)c2=O)cc1`: the half-maximal effective concentration (EC50) was 1200 nM. Turning to `CCCCCCn1c(=O)c(C(=O)Nc2ccc(C(=O)OCC)cc2)c(O)c2ccccc21`, the EC50 was 3600 nM.

Regarding `CCCOC(=O)c1ccc(NC(=O)c2c(O)c3cc(OC)c(OC)cc3n(CCC)c2=O)cc1`, the EC50 was 360 nM.

For the molecule `CCCCCCn1c(=O)c(C(=O)Nc2ccc(C(=O)O)cc2)c(O)c2ccccc21`, the EC50 stood at 600 nM. For `CCCCCCn1c(=O)c(C(=O)Nc2ccc(C(=O)NCCCC)cc2)c(O)c2ccccc21`, the EC50 amounted to 5800 nM.

On to `CCCOC(=O)c1ccc(NC(=O)c2c(O)c3cccc4c3n(c2=O)CCC4)cc1`, for which the EC50 was determined as 800 nM.

Turning to `CCCCCn1c(=O)c(C(=O)Nc2ccc(C(=O)OCCC)cc2)c(O)c2ccccc21`, the EC50 came out at 700 nM. For `CCCCn1c(=O)c(C(=O)Nc2ccc(C(=O)OCCC)cc2)c(O)c2ccccc21`, the EC50 amounted to 800 nM.

`CCCCCCn1c(=O)c(C(=O)Nc2ccc(C(=O)OCc3ccccc3)cc2)c(O)c2ccccc21`: the EC50 was 2000 nM. On to `CCCCCCn1c(=O)c(C(=O)Nc2ccc(C(=O)OC(C)C)cc2)c(O)c2ccccc21`, for which the EC50 is 6500 nM. Turning to `C=CCn1c(=O)c(C(=O)Nc2ccc(C(=O)OCCC)cc2)c(O)c2ccccc21`, the EC50 was determined as 3400 nM. On to `CCCOC(=O)c1ccc(NC(=O)c2c(O)c3cc(Cl)ccc3n(CCC)c2=O)cc1`, for which the EC50 amounted to 4900 nM. Turning to `CCCCCCn1c(=O)c(C(=O)Nc2ccc(C(=O)OC(C)(C)C)cc2)c(O)c2ccccc21`, the EC50 came out at 3100 nM. On to `CCCOC(=O)c1ccc(NC(=O)c2c(O)c3ccccc3n(CCC)c2=O)cc1`, for which the EC50 was 2600 nM. Same read-out and setting: next, `CCCOC(=O)c1ccc(NC(=O)c2c(O)c3cc(F)ccc3n(CCC)c2=O)cc1`: 2400 nM; `c1ccc2c(Oc3nc(Nc4ccc(N5CCOCC5)cc4)c4ncn(C5CCCCC5)c4n3)cccc2c1` [Purmorphamine]: 800 nM.

A short description of a further test: Agonist activity at Smo in mouse C3H10T1/2 cells assessed as induction of cell differentiation into osteoblast incubated for 6 days by alkaline phosphatase assay.
As to `CNC1CCC(N(Cc2cccc(-c3ccncc3)c2)C(=O)c2sc3ccccc3c2Cl)CC1` (stereo unspecified), the EC50 was found to be 130 nM.
